These results are taken from patent US20240382491A1, “METHODS FOR TREATING NEUROGENERATIVE DISEASES” (PTC THERAPEUTICS, INC., priority 2021, published 2024).

One assay has as its system IKBKAP gene. Particulars: as reported in International Publication No. WO2016/115434; cited from earlier work.
In assay [1] the test system is MAPT 3R mRNA (Microtubule associated protein Tau). The experiment in a line: RT-qPCR Assay to Quantify MAPT 3R mRNA in Cells. The assay is classed as cell-based. Conditions: MAPT 3R mRNA by RT-qPCR, GAPDH assay in same reaction; cells treated 24 h; 7-point concentration curve.

Consider `Clc1nc(NCc2ccncc2)c2cc[nH]c2n1` [Comparison Compound 1, 2-chloro-N-(pyridin-4-ylmethyl)-7H-pyrrolo[2,3-d]pyrimidin-4-amine], for which the “potency in correcting mRNA splicing and promoting exon 20 inclusion in the IKBKAP gene” value in the assay with IKBKAP gene is “very potent”.

On to `C[C@H](N)Cc1[nH]c2nc(Cl)nc(NCc3ccco3)c2c1F` [Cpd 10, 6-[(2S)-2-aminopropyl]-2-chloro-5-fluoro-N-[(furan-2-yl)methyl]-7H-pyrrolo[2,3-d]pyrimidin-4-amine], for which the EC (2-fold increase) in assay [1] was in the range of 0.05 to 0.5 µM.

For the molecule `CNCCc1[nH]c2nc(Cl)nc(NCc3ccco3)c2c1Cl` [Cpd 17, 2,5-dichloro-N-[(furan-2-yl)methyl]-6-[2-(methylamino)ethyl]-7H-pyrrolo[2,3-d]pyrimidin-4-amine], the EC (2-fold increase) in assay [1] was 1 to 1.5 µM.

As for `C[C@H](N)Cc1c(Cl)c2c(NCc3ccco3)nc(Cl)nc2n1C` [Cpd 23, 6-[(2S)-2-aminopropyl]-2,5-dichloro-N-[(furan-2-yl)methyl]-7-methyl-7H-pyrrolo[2,3-d]pyrimidin-4-amine], in assay [1], the EC (2-fold increase) was 0.05 to 0.5 µM.

In the case of `C[C@H](N)Cc1c(F)c2c(NCc3ccco3)nc(Cl)nc2n1C` [Cpd 24, 6-[(2S)-2-aminopropyl]-2-chloro-5-fluoro-N-[(furan-2-yl)methyl]-7-methyl-7H-pyrrolo[2,3-d]pyrimidin-4-amine], the EC (2-fold increase) in assay [1] lay in the range of 0.05 to 0.5 µM.

For the molecule `Cc1c(C[C@H](C)N)n(C)c2nc(Cl)nc(NCc3ccco3)c12` [Cpd 35, 6-[(2S)-2-aminopropyl]-2-chloro-N-[(furan-2-yl)methyl]-5,7-dimethyl-7H-pyrrolo[2,3-d]pyrimidin-4-amine], the EC (2-fold increase) in assay [1] fell in the range of 0.05 to 0.5 µM.

For `C[C@H](N)Cc1c(F)c2c(NCc3nccs3)nc(Cl)nc2n1C` [Cpd 38, 6-[(2S)-2-aminopropyl]-2-chloro-5-fluoro-7-methyl-N-[(1,3-thiazol-2-yl)methyl]-7H-pyrrolo[2,3-d]pyrimidin-4-amine], the EC (2-fold increase) in assay [1] was in the range of 0.5 to 1 µM.

Consider `C[C@H](N)Cc1c(F)c2c(NCc3ccncc3F)nc(Cl)nc2n1C` [Cpd 41, 6-[(2S)-2-aminopropyl]-2-chloro-5-fluoro-N-[(3-fluoropyridin-4-yl)methyl]-7-methyl-7H-pyrrolo[2,3-d]pyrimidin-4-amine], for which the EC (2-fold increase) in assay [1] is 0.5 to 1 µM.

With `C[C@H](N)Cc1c(F)c2c(NCc3ccncc3)nc(Cl)nc2n1C` [Cpd 43, 6-[(2S)-2-aminopropyl]-2-chloro-5-fluoro-7-methyl-N-[(pyridin-4-yl)methyl]-7H-pyrrolo[2,3-d]pyrimidin-4-amine], the EC (2-fold increase) in assay [1] lay in the range of 0.5 to 1 µM.

Turning to `C[C@H](N)Cc1c(F)c2c(NCc3cccs3)nc(Cl)nc2n1C` [Cpd 49, 6-[(2S)-2-aminopropyl]-2-chloro-5-fluoro-7-methyl-N-[(thiophen-2-yl)methyl]-7H-pyrrolo[2,3-d]pyrimidin-4-amine], the EC (2-fold increase) in assay [1] lay in the range of 0.05 to 0.5 µM.
